In BindingDB's records for doi:10.1074/jbc.M110.181594 (Institut Pasteur, 2010):

Biological target: T1, 2'-deoxynucleoside 5'-phosphate N-hydrolase 1 (Rattus norvegicus, UniProt O35820)
T1 sequence (O35820 whole entry): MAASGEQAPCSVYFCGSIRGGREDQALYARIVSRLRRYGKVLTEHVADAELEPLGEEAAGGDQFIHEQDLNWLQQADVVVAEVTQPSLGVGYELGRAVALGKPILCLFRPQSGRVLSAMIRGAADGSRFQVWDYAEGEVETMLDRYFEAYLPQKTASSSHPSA
Assay: Inhibition Assay
Excerpt: Rcl inhibition by nucleotides.

SMILES	Ki
O=c1[nH]c(=O)c2ncn(C3OC(COP(=O)(O)O)C(O)C3O)c2[nH]1 (centres undefined) [XMP]	54 µM
Nc1nc(=O)c2ncn(COCCOP(=O)(O)O)c2[nH]1 [Acyclovir 5'-monophosphate]	57 µM
NC(=O)c1ncn(C2OC(COP(=O)(O)O)C(O)C2O)c1N (centres undefined) [[5-(5-amino-4-carbamoyl-1H-imidazol-1-yl)-3,4-dihydroxyoxolan-2-yl]methyl phosphate]	52 µM
Nc1ncnc2c1ncn2C1OC(COP(O)(O)=S)C(O)C1O (centres undefined) [5'-AMPS]	14 µM
